The values below come from patent US20200247815A1, “PYRAZOLYL-CONTAINING TRICYCLIC DERIVATIVE, PREPARATION METHOD THEREFOR AND USE THEREOF” (Jiangsu Hansoh Pharmaceutical Group Co., Ltd., priority 2017, published 2020).

One series deals with T1, ERK-1 kinase (Homo sapiens, UniProt P27361).
T1 construct: purchased Invitrogen PV3311
Put plainly: Inhibition of ERK-1 kinase activity (LANCE Ultra TR-FRET). The series is classed as biochemical. Particulars: ERK1 enzyme 0.4 nM, ATP 38.15 μM. Put shortly:
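Reactions contained 0.4 nM ERK1, 0.5 μM Ulight-MBP peptide and 38.15 μM ATP in pH 7.4 Hepes/MgCl2 buffer with 4% DMSO and ran 60 minutes at room temperature. Detection used Eu-anti-p-MBP with a 665/615 nm TR-FRET ratio, normalised to DMSO and no-enzyme controls. Final concentrations were 100 nM to 0.005 nM, and IC50 came from a 4-parameter fit.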
On the technique in general: TR-FRET usually uses a lanthanide donor and a delayed reading to cut background.

The next series deals with T2, ERK-2 kinase (Homo sapiens, UniProt P28482).
T2 construct: purchased Invitrogen PV3313
Nature of the series: Inhibition of ERK-2 kinase activity (LANCE Ultra TR-FRET). The series is classed as biochemical. Particulars: ERK-2 enzyme 0.08 nM, ATP 38.15 μM. Put shortly:
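Recombinant ERK-2 (0.08 nM) with ULight-MBP peptide (0.5 μM) and ATP (38.15 μM) in Hepes pH 7.4 buffer, compound 100 nM to 0.005 nM final, 4% DMSO, 60 min at room temperature. Eu-anti-p-MBP TR-FRET (665/615 nm) read after EDTA stop; % inhibition versus DMSO and no-enzyme controls fitted 4-parameter for Abs_IC50.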

The nature of series [1]: Pharmacokinetics assay in mice (oral, plasma). The series is classed as in vivo, Balb/c Mouse. Here is the method: Balb/c Mouse was used as the test animal. The pharmacokinetic behavior of compounds of Example 1, 2 and 7 administrated orally was studied in mice (plasma).
170 g of PEG400 and 20 g of Solutol HS-15 were added to a 250 mL glass flask, and then 10 mL of NMP was added. The solution was mixed well by ultrasound for 10 minutes to obtain a clear solution.
11.2 mg of the compound of Example 1, 10.8 mg of the compound of Example 2 and 9.8 mg of the compound of Example 7 were weighted to a 4 mL glass flasks respectively, […], 2.160 mL and […] of the above solution were treated by ultrasound for 10 minutes to obtain a colorless clear solution with a concentration of 5 mg/mL.
After fasting overnight, the male Balb/c mice were administrated with the compounds (PO), the dose was 50 mg/kg, and the administration volume was 10 mL/kg.
Blood was taken before administration and at 0.25, 0.5, 1, 2, 4, 6, 8 and 24 hours after administration. The blood samples were stored in EDTA-2K tubes, and centrifuged for 6 minutes to separate the blood plasma. The plasma samples were stored at −80° C.

For series [2], the system named is human pancreatic cancer cell MiaPaca 2 xenograft (CDX) model. Nature of the series: Tumor inhibition experiment in MiaPaca 2 xenograft model. The series is classed as in vivo, BALB/c nude mice. Here is the method: BALB/c nude mice were used as test animals. In vivo pharmacodynamic test was carried out in human pancreatic cancer cell MiaPaca 2 xenograft (CDX) model to evaluate the antitumor effect of the test compound.
MiaPaca 2 cells were obtained from the cell bank. After recovery, the cells were added to a DMEM medium (containing 10% FBS, 1% Glu and 1% P/S), and incubated in the CO2 incubator (the incubator temperature was 37° C., and the CO2 concentration was 5%). The cells were subjected to passage after spreading 80-90% of the bottom of the culture flask. After passage, the cells were incubated in the CO2 incubator. This process was repeated until the number of cells met the required by in vivo pharmacological inoculation. Cells in log phase were collected, and counted by the automatic cell counter. The cells were re-suspended with PBS and Matrigel (1:1 by volume) based on the counting results to obtain a cell suspension (cell density: […]), which was placed in an ice box.
Female BALB/c nude mice (6-8 weeks old, body weight: 18-22 grams) were used as test animals. The mice were maintained in individually ventilated cages (5 mice per cage) in a special pathogen-free environment. All cages, padding and water were disinfected before use. All animals had free access to standard certified commercial laboratory diets. The nude mice were labeled with disposable ear tags before the experiment. The skin of the inoculated area was sterilized with 75% medical alcohol before inoculation. Each mouse was subcutaneously inoculated with 0.1 ml (containing 8*10^6 cells) of MiaPaca 2 tumor cells on the right back. Administration was started when the average tumor volume reached 100-200 mm^3. The test compound was administrated intragastrically daily. The tumor volume (mm^3) was measured with vernier caliper twice a week. Calculation formula: V=0.5*D*d*d, wherein D and d refer to the major and minor diameter of the tumor, respectively. The anti-tumor efficacy was determined by dividing the average tumor increase volume of compound-treated animals by the average tumor increase volume of untreated animals. Calculation formula of tumor inhibition rate: TGI (%)=1−[(Vt−V0)administration group/(Vt−V0)solvent control group]*100%. All animals were euthanized after the experiment.

A short description of series [3]: Solubility (statement, no method). The series is classed as physicochemical.
For series [4] the following is noted: conventional solvents, background statement; cited from earlier work.
[5] abbreviates: mouse, male Balb/c mice, PO 50 mg/kg, plasma.
Setting [6] is: 100 mg/kg QD × 3 w, intragastric, Day 21.

For orientation: IC50 means the concentration at which inhibition is half-maximal. In general, Cmax refers to the maximum level reached in the sampled fluid or tissue. What is called MRT is a mean duration of stay, worked out from the concentration-time curve. By Tmax is commonly meant the time from dosing to the highest level. By half-life is commonly meant how long it takes for the measured level to halve.

T2 sequence (P28482 whole entry): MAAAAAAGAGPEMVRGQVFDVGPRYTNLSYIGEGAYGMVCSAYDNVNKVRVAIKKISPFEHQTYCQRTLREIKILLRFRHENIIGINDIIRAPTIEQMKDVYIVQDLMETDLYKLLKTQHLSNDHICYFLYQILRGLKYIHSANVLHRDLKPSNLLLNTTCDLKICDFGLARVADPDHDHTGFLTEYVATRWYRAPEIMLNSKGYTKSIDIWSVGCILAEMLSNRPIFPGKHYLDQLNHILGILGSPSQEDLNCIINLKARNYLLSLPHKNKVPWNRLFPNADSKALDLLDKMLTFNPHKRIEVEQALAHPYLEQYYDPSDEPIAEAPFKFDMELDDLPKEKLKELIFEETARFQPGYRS
T1 sequence (P27361 whole entry): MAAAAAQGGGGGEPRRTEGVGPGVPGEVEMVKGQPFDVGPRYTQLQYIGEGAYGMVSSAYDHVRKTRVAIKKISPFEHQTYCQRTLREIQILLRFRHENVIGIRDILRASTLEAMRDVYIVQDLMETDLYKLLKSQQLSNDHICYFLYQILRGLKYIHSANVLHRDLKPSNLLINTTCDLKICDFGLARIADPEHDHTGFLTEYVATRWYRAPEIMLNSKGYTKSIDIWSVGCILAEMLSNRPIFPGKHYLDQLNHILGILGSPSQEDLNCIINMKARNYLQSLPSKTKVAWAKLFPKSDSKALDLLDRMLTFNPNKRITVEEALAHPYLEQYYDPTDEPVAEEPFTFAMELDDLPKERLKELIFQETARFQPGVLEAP

Turning to `C[C@@H](NC(=O)c1nc2cc3c(-c4ccncc4)n[nH]c3cc2[nH]1)c1ccc(F)cc1` [Example 7, (R)—N-(1-(4-fluorophenyl)ethyl)-3-(pyridin-4-yl)-1,7-dihydroimidazo[4,5-f]indazole-6-carboxamide], the IC50 at ERK-1 kinase turned out to be 0.41 nM. Moreover, the IC50 at ERK-2 kinase stood at 0.18 nM. For the same compound, in series [1] (dose of 50 mg/kg, oral), the “Exposure in mouse plasma” value is reported as “good exposure”. In series [1] (setting [5]), the Cmax worked out at 8260 ng/mL, the MRT came to 2.33 h, the Tmax was determined as 1 h and the half-life was 0.83 h. Further, the AUC(0-t) in series [1] (mouse, male Balb/c mice, PO 50 mg/kg, plasma, read-out: AUC0-24) turned out to be 27300 ng·h/mL. In series [2] (100 mg/kg QD × 3 w, intragastric, Day 0), the “Tumor volume (Mean ± SD) Day 0” value was found to be 156 ± 33 mm^3. Also, in series [2] (setting [6]), the “TGI Day 21” value is listed as 58.3%, the “Tumor volume (Mean ± SD) Day 21” value is on record as 426 ± 205 mm^3 and the “ΔT/ΔC Day 21” value was 41.63%. For the same compound, the “Inhibition of growth of xenograft” value in series [2] (100 mg/kg QD, continuous oral administration for 21 days) is recorded as “significantly inhibit the growth”. Besides, in series [3], the “Solubility compared with ERK compounds of the prior art” value is “higher solubility”.

On to `O=C1Nc2cc3[nH]nc(-c4ccncc4)c3cc2CN1Cc1ccccc1` [KO-947], for which the “Solubility” value in series [4] is reported as “poor solubility”.
